Like-named read-outs stand apart in the source and are kept apart here.
Experiments:
[1] = target: r(G4C2)8; experiment: Biolayer interferometry (BLI) binding; details: for Kd: BLI
Description: (§1) Biolayer Interferometry (BLI). BLI studies were performed similarly as previously described (12) using an Octet RED96. Briefly, 5′-biotinylated nucleic acids were folded by heating at 95° C. for 4 min in 10 mM sodium phosphate buffer, pH 7, followed by slowly cooling to room temperature. Then, to the folded RNA were added the following components: 1.386 mL 1×DPBS (21-031-CV, Corning), 180 μL freshly prepared 1% (w/v) BSA, 36 μL 1% (v/v) Tween-20, and 18 μL DMSO (1% final concentration) in a final volume of 1.8 mL. The final concentration of RNA was 0.5 μM. Separately, serial dilutions of the compound of interest were prepared in the same buffer.
(§2) The resulting curves were analyzed and processed using Octet Data Analysis software version 9.1 by subtracting the response of the sensors recorded upon incubation with solutions containing compound and no RNA (parallel reference). The data were then fitted assuming reversible binding using the entire time interval for association and dissociation using either 1:1 or the 2:1 heterogeneous binding curve fitting model. The reported Kd,n, kon,n and koff,n values represent the average of two independent experiments.

[2] = target: d(G4C2)8; experiment: Biolayer interferometry (BLI) binding; details: BLI
Description: as §1
as §2, with “Streptavidin sensors (SA, #18-5019, ForteBio) were equilibrated with buffer for 10 min at room temperature using 96-well black microplate (Greiner; Catalog #: 655209). The following time intervals were used during data acquisition (30° C. with shaking at 1000 rpm): baseline step, 180 s; loading of RNA, 900 s; washing, 180 s; association of compound, 1800 s; and dissociation of compound, 1800 s. The resulting” for “The resulting”

[3] = target: r(G2C2)10; experiment: Biolayer interferometry (BLI) binding; details: BLI; read-out: Kd, 1
Description: as §1
as §2, with “Streptavidin sensors (SA, #18-5019, ForteBio) were equilibrated with buffer for 10 min at room temperature using 96-well black microplate (Greiner; Catalog #: 655209). The following time intervals were used during data acquisition (30° C. with shaking at 1000 rpm): baseline step, 180 s; loading of RNA, 900 s; washing, 180 s; association of compound, 1800 s; and dissociation of compound, 1800 s. The resulting” for “The resulting”

[4] = target: r(G2C4)8; experiment: Biolayer interferometry (BLI) binding; details: BLI
Description: as §1
as §2, with “Streptavidin sensors (SA, #18-5019, ForteBio) were equilibrated with buffer for 10 min at room temperature using 96-well black microplate (Greiner; Catalog #: 655209). The following time intervals were used during data acquisition (30° C. with shaking at 1000 rpm): baseline step, 180 s; loading of RNA, 900 s; washing, 180 s; association of compound, 1800 s; and dissociation of compound, 1800 s. The resulting” for “The resulting”

[5] = test system: r(G4C2)8 and hnRNP H1 complex; experiment: TR-FRET hnRNP H binding assay; format: biochemical; details: for IC50: inhibiting r(G4C2)8 and hnRNP H1 complex formation, 7 in the absence of Rnase L
Description: TR-FRET hnRNP H Binding Assay. TR-FRET assays were performed as previously described (12). The mixture was incubated for 15 min at room temperature and then hnRNP H1-His6 was added. After an additional 15 min incubation, streptavidin-XL665 (HTRF, Cisbio Bioassays) and anti-His6-Tb (HTRF, Cisbio Bioassays) were added to a final concentration of 40 nM and 0.44 ng/μL, respectively. After incubating for 1 h, TR-FRET was measured as previously described (12).

[6] = test system: r(G4C2)8; experiment: In vitro Chem-CLIP and C-Chem-CLIP; format: binding
Description: In vitro Chemical Cross-linking and Isolation by Pull-Down (Chem-CLIP) and Competitive Chemical Cross-linking and Isolation by Pull-Down (C-Chem-CLIP): Approximately 10,000 counts of ^32P 5′-end labeled r(G4C2)8 was folded in 1×Folding Buffer at 95° C. for 1 min. After cooling to room temperature, the Chem-CLIP probe at the desired concentrations (5, 10, 100, 500, 1000, 5000, 10000 nM) was added, and the samples were incubated at 37° C. for 18 h. For C-Chem-CLIP studies, the parent compound (10, 100, 500, 1000, 5000, 10000 nM) was incubated with RNA for 1 h before addition of the Chem-CLIP probe (500 nM).
Cross-linked RNAs were clicked to biotin […] azide (10 μL of a 5 mM stock solution in DMSO) by incubating in a solution containing 25 mM HEPES (pH 7.1), 250 mM sodium ascorbate, 10 mM CuSO4, and 50 mM THPTA (tris-hydroxypropyltriazolylmethylamine) for 6 h at 37° C. A 300 μL of streptavidin-agarose beads (Sigma-Aldrich) was washed three times and then resuspended in 1×PBS. An aliquot (20 μL) of the slurry was added to each sample, which was incubated for 1 h at room temperature. The samples were centrifuged and the supernatant containing unbound RNA was transferred to an unused tube. The beads were then washed three times with 1×PBS supplemented with 0.10% (v/v) Tween-20 and centrifuged, with each wash supernatant being added to the tube containing unbound RNA. The amounts of radioactivity in the supernatant and associated with the beads were quantified with a Beckman Coulter LS6500 Liquid Scintillation Counter.

[7] = test system: quadruplex form of r(G4C2) repeats, r(G2C2)10, d(G4C2)8, d(G2C2)10; experiment: In vitro Chem-CLIP, other nucleic acids; format: binding
[8] = test system: C9orf72 mRNA variants; experiment: Cellular Chem-CLIP in patient-derived LCLs; format: cell-based, human; details: lymphoblastoid cells
Description: (§3) Cellular Chem-CLIP. For cellular Chem-CLIP studies, LCLs were grown in T-25 flasks while iPSCs were grown in 100 mm dishes. The cells were treated with Chem-CLIP probe (500 nM) overnight at 37° C. After removing the medium and washing with 1×PBS, fresh, ice-cold 1×PBS was added, and crosslinking was performed by UV irradiation at 365 nm for 10 min. The cells were collected, and total RNA was extracted with Qiagen micro RNEasy Kit per the manufacturer's protocol. Dynabeads MyOne Streptavidin C1 beads (Thermo Fisher Scientific 65001) were pre-loaded with biotin disulfide azide (Bioconjugate Technologies LLC dba Click Chemistry Tools) by incubating (10 μL of a 5 mM stock solution in DMSO in 500 μL PBS) with beads at room temperature for 30 min before magnetic capture. The beads were washed with High Salt Wash Buffer: (10 mM Tris-HCl pH 7.0, 1 mM EDTA, 4 M NaCl, 0.2% Tween-20) followed by two washes with Nanopure water. The click reaction between cross-linked RNAs and the Dynabeads displaying biotin disulfide azide was completed in a solution containing 25 mM HEPES, pH 7.1, 250 mM sodium ascorbate, 10 mM CuSO4, and 50 mM THPTA for 6 h at 37° C. […] The levels of C9orf72 mRNA in the purified, pull-down fraction were then measured by RT-qPCR as described above.

[9] = test system: C9orf72 mRNA variants; experiment: Cellular Chem-CLIP in patient-derived iPSCs; format: cell-based, human
Description: as §3

[10] = test system: C9orf72 intron 1 harboring r(G4C2)exp; experiment: C9orf72 intron 1 RT-qPCR in patient-derived LCLs; format: cell-based, human; details: increasing concentrations
Description: Measuring Levels of C9orf72 and C9orf72 Variants by RT-qPCR. LCLs were seeded in 6-well plate (˜10^6 cells in 2 mL of growth medium) and incubated overnight at 37° C. Cells were then treated with various concentrations of compound for 24 h or with G4C2-ASO and Control-ASO (100 nM), delivered by transfection with Lipofectamine RNAiMax. RNA was extracted as described above and the expression of C9orf72 variants was determined by RT-qPCR. […] For compound treatment well, medium change was performed with fresh compound every 3-4 days. RNA was extracted as described above and the expression of C9orf72 variants was determined by RT-qPCR.

For `C#CCn1c2ccc(OC)cc2c2c(C)c3cnccc3c(C)c21` [Compound 1b], the Kd ([1]; r(G4C2) repeats, read-out: Kd) was 11 ± 0.14 µM and the “avidity weaker than 1” value ([1]; Kd relative to 1) was about 37 fold.
`Cc1c2ccncc2c(C)c2c1[nH]c1ccc(OCCOCCOCCOCCOCCOCCOc3ccc4[nH]c5c(C)c6ccncc6c(C)c5c4c3)cc12` [Compound 2] was tested, and the Kd ([1]; read-out: Kd) was 0.05 ± 0.008 µM, the Kd ([1]; read-out: Kd, 2) was 0.12 µM and the Kd ([2]; read-out: Kd, 1) was 1.3 µM. For the same compound, the Kd ([2]; read-out: Kd, 2) was 38 µM, the Kd [3] was 6 µM and the Kd ([4]; read-out: Kd, 1) was 32 µM. For the same compound, the Kd ([4]; read-out: Kd, 2) was 120 µM, the “more potent than 1” value ([5]; IC50 relative to 1) was 10 fold and the IC50 [5] was about 1.8 µM.
For `C#CCCC1(CCC(=O)N(CCOCCOCCOc2ccc3[nH]c4c(C)c5ccncc5c(C)c4c3c2)CCOCCOCCOc2ccc3[nH]c4c(C)c5ccncc5c(C)c4c3c2)N=N1` [Compound 4], the RNA pulled down ([6]; 500 nM compound) was about 40%, the “pull-down of other nucleic acids more than 5” value [7] was “did not statistically significantly pull-down” and the “enrichment of variants with r(G4C2)exp” value ([8]; 500 nM probe) was 1.9±0.4 fold. The “enrichment of variants that do not contain the repeat expansion” value [8] was “no enrichment”, the “enrichment of variants that do not contain the repeat expansion” value [9] was “no enrichment” and the “enrichment of variants with r(G4C2)exp” value ([9]; 500 nM probe) was 2.3±0.2 fold.
Work on `C#CCCC1(CCC(=O)NCCC)N=N1` [Compound 5] yielded an RNA pulled down ([6]; all concentrations tested, up to 10 μM) of under 25%.
`CC(=O)N(CCOCCOCCOc1ccc2[nH]c3c(C)c4ccncc4c(C)c3c2c1)CCOCCOCCOc1ccc2[nH]c3c(C)c4ccncc4c(C)c3c2c1` [Compound 6] gave a Kd ([1]; exponent printed in row below, read-out: Kd, 1) of 0.2 µM, a Kd ([1]; read-out: Kd, 2) of 10.6 µM and an IC50 [5] of 2.3 ± 0.3 µM. For the same compound, the “C9orf72 intron 1 levels on co-treatment with constant concentration of 7” value [10] was “dose-dependently restored”.
